Results: ChEMBL document CHEMBL4346666, “Synthesis, mitochondrial localization of fluorescent derivatives of cinnamamide as anticancer agents” (Eur J Med Chem, 2019)

How the values were obtained:
HL-60 [1] = test: Cytotoxicity against human HL60 cells assessed as cell viability at 20 uM measured after 48 hrs by MTT assay relative to control; type: functional; conditions: HL-60, 48 h, read-out: Activity
HeLa = test: Cytotoxicity against human HeLa cells assessed as cell viability at 20 uM measured after 48 hrs by MTT assay relative to control; type: functional; conditions: read-out: Activity
HepG2 = test: Cytotoxicity against human HepG2 cells assessed as cell viability at 20 uM measured after 48 hrs by MTT assay relative to control; type: functional; conditions: HepG2, 48 h, read-out: Activity
MCF7 = test: Cytotoxicity against human MCF7 cells assessed as cell viability at 20 uM measured after 48 hrs by MTT assay relative to control; type: functional; conditions: MCF7, 48 h, read-out: Activity
HL-60 [2] = test: Cytotoxicity against human HL60 cells assessed as reduction in cell viability measured after 48 hrs by MTT assay; type: functional, cell-based; conditions: HL-60, 48 h

SMILES	viability at 20 µM (HL-60 [1]) [%]	viability at 20 µM (HeLa) [%]	viability at 20 µM (HepG2) [%]	viability at 20 µM (MCF7) [%]	IC50 (HL-60 [2]) [µM]
CCN(CC)c1ccc2cc(C(=O)N3CCN(C(=O)/C(=C/c4cc(OC)c(OC)c(OC)c4)c4ccc(OC)cc4)CC3)c(=O)oc2c1	74.3	100	100	100	
CCN(CC)c1ccc2cc(C(=O)NCCCCCCNC(=O)/C=C/c3cc(OC)c(OC)c(OC)c3)c(=O)oc2c1	43.5	72.2	100	91	
CCN(CC)c1ccc2cc(C(=O)NCCNC(=O)/C(=C/c3cc(OC)c(OC)c(OC)c3)c3ccc(OC)c(F)c3)c(=O)oc2c1	67.7	99.7	100	100	15
CCN(CC)c1ccc2cc(C(=O)NCCCCNC(=O)/C(=C/c3cc(OC)c(OC)c(OC)c3)c3ccc(OC)cc3)c(=O)oc2c1	51.3	75	100	84.9	
CCN(CC)c1ccc2cc(C(=O)N3CCN(C(=O)/C=C/c4cc(OC)c(OC)cc4OC)CC3)c(=O)oc2c1	80.1	84.6	99.6	91.6	
CCN(CC)c1ccc2cc(C(=O)NCCCCNC(=O)/C=C/c3cc(OC)c(OC)c(OC)c3)c(=O)oc2c1	56.3	74.5	93.8	93.8	
CCN(CC)c1ccc2cc(C(=O)NCCNC(=O)/C(=C/c3cc(OC)c(OC)c(OC)c3)c3ccc(F)cc3)c(=O)oc2c1	68.3	84.7	96	75.3	18.8
CCN(CC)c1ccc2cc(C(=O)NCCNC(=O)/C=C/c3c(OC)cc(OC)cc3OC)c(=O)oc2c1	68.9	63.9	75.4	72.1	> 25
CCN(CC)c1ccc2cc(C(=O)NCCNC(=O)/C(=C/c3cc(OC)c(OC)c(OC)c3)c3ccc(OC)cc3)c(=O)oc2c1	29.4	75	100	75.8	13.8
CCN(CC)c1ccc2cc(C(=O)N3CCN(C(=O)/C=C/c4cc(OC)c(OC)c(OC)c4)CC3)c(=O)oc2c1	74.5	82.6	97.2	100	
CCN(CC)c1ccc2cc(C(=O)N3CCN(C(=O)/C(=C/c4cc(OC)c(OC)c(OC)c4)c4ccc(OC)c(OC)c4)CC3)c(=O)oc2c1	80.3	97.8	82.1	100	
CCN(CC)c1ccc2cc(C(=O)N3CCN(C(=O)/C=C/c4ccc(OC)cc4)CC3)c(=O)oc2c1	85.6	81.6	98.9	98.1	
CCN(CC)c1ccc2cc(C(=O)NCCNC(=O)CCc3cc(OC)c(OC)c(OC)c3)c(=O)oc2c1	80.4	67.4	66.8	78.2	> 25
CCN(CC)c1ccc2cc(C(=O)NCCCCCCNC(=O)/C=C/c3ccc(OC)cc3)c(=O)oc2c1	99.8	100	76.6	87.8	
CCN(CC)c1ccc2cc(C(=O)NCCNC(=O)/C(=C/c3cc(OC)c(OC)c(OC)c3)c3ccc(C(F)(F)F)cc3)c(=O)oc2c1	54.2	74	98.9	79.1	> 25
CCN(CC)c1ccc2cc(C(=O)NCCCCCCNC(=O)/C(=C/c3cc(OC)c(OC)c(OC)c3)c3ccc(OC)cc3)c(=O)oc2c1	82.5	100	100	100	
CCN(CC)c1ccc2cc(C(=O)NCCNC(=O)/C=C/c3cc(OC)c(OC)cc3OC)c(=O)oc2c1	48.2	72.6	100	76.4	22.9
CCN(CC)c1ccc2cc(C(=O)N3CCN(C(=O)/C=C/c4c(OC)cc(OC)cc4OC)CC3)c(=O)oc2c1	75.3	78.2	88.7	94	
CCN(CC)c1ccc2cc(C(=O)NCCNC(=O)/C=C/c3ccc(OC)cc3)c(=O)oc2c1	78.5	71.8	68.8	80.7	> 25
CCN(CC)c1ccc2cc(C(=O)NCCNC(=O)/C=C/c3cc(OC)c(OC)c(OC)c3)c(=O)oc2c1	45.5	61.4	72.9	72.4	23.3
